From publication PMC10762035, “Molecular basis of human trace amine-associated receptor 1 activation” (Nature Communications, 2024)
Numbering of substitutions follows the chain as printed. Where “and” joins values, the source holds several entries; their conditions need not be identical. Equal values may be shown once.

How the values were obtained:
Type in all cases: cell-based
hTA1 b2N = molecular target: T1, hTA1 b2N (Homo sapiens, UniProt Q96RJ0); test: GloSensor cAMP accumulation assay, b2N construct; settings: b2N, n=2
T1 construct: read by me as the first 25 residues of β2AR (N); expressed in transfected cells; host or cells: HEK293T
T1 sequence (Q96RJ0 with tags, fused parts or gaps): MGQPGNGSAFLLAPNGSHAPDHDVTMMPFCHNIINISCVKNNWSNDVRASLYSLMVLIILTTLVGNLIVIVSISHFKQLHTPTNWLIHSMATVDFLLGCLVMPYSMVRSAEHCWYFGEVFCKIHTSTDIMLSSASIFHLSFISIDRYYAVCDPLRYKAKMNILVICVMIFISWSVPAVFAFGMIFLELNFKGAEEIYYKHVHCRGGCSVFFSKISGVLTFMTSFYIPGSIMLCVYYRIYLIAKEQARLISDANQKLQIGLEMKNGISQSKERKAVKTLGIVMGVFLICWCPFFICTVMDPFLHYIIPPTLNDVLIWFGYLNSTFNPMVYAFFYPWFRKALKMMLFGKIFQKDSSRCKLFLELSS

hTA1 C13S = molecular target: T2, hTA1 C13S (Homo sapiens, UniProt Q96RJ0, C13S); test: GloSensor cAMP accumulation assay, C13S mutant; settings: for C13S - Normalized Luminescence Counts (N=2): log[Compound], single wells
T2 construct: expressed in transfected cells; host or cells: HEK293T
T2 sequence (Q96RJ0 1-339 C13S): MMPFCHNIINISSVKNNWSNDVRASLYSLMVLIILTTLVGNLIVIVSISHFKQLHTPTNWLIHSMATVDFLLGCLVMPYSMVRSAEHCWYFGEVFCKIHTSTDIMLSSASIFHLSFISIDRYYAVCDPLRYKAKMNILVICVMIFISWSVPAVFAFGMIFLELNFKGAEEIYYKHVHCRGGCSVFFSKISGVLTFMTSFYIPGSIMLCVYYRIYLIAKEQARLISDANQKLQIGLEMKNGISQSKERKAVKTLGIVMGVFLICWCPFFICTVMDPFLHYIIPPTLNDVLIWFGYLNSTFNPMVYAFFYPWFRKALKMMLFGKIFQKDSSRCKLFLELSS

hTA1 C178S = molecular target: T3, hTA1 C178S (Homo sapiens, UniProt Q96RJ0, C178S); test: GloSensor cAMP accumulation assay, C178S mutant; settings: for C178S - Normalized Luminescence Counts (N=2): log[Compound], single replicates
T3 construct: expressed in transfected cells; host or cells: HEK293T
T3 sequence (Q96RJ0 1-339 C178S): T2 sequence (Q96RJ0 1-339 C13S) with S13C, C178S

hTA1 W264F = molecular target: T4, hTA1 W264F (Homo sapiens, UniProt Q96RJ0, W264F); test: GloSensor cAMP accumulation assay, W264F mutant;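 also: cells transiently transfected with receptor plus GloSensor, luminescence read 30 min after agonist addition at room temperature, concentration-response curves fitted by log(agonist) vs response regression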
T4 construct: expressed in transfected cells; host or cells: HEK293T
T4 sequence (Q96RJ0 1-339 W264F): T2 sequence (Q96RJ0 1-339 C13S) with S13C, W264F

hTA1 I290N = molecular target: T5, hTA1 I290N (Homo sapiens, UniProt Q96RJ0, I290N); test: GloSensor cAMP accumulation assay, I290N mutant;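 also: cells transiently co-expressing hTA1 and the GloSensor cAMP biosensor, luminescence read 30 min after compound addition at room temperature, efficacy scaled to the maximal β-PEA response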
T5 construct: expressed in transfected cells; host or cells: HEK293T
T5 sequence (Q96RJ0 1-339 I290N): T2 sequence (Q96RJ0 1-339 C13S) with S13C, I290N

hTA1 T271N = molecular target: T6, hTA1 T271N (Homo sapiens, UniProt Q96RJ0, T271N); test: GloSensor cAMP accumulation assay, T271N mutant
T6 construct: expressed in transfected cells; host or cells: HEK293T
T6 sequence (Q96RJ0 1-339 T271N): T2 sequence (Q96RJ0 1-339 C13S) with S13C, T271N

[1] = C178S, each row one experiment (N=2), 3 replicates

NCCc1ccc(Oc2ccc(O)cc2)c(I)c1 [T1AM, 3-iodothyronamine]
Span ± SEM (Emax normalized to β-PEA) (hTA1 b2N): 80.48 | pEC50 ± SEM (hTA1 b2N): 6.65 ± 0.05 | EC50 (hTA1 b2N; read-out: EC50): 224 nM | ΔpEC50 values (each mutant value - WT average) (hTA1 C13S; C13S): -0.156 and -0.1145 | Emax values (hTA1 C13S; C13S, Mean of fit per experiment): 53.0882 and 64.9586 | Span ± SEM (Emax normalized to β-PEA) (hTA1 C13S; C13S, n=2): 59.02 ± 5.94 | pEC50 ± SEM (hTA1 C13S; C13S, n=2): 5.99 ± 0.05 | EC50 (hTA1 C13S; C13S, n=2, read-out: EC50): 1010 nM | pEC50 values, Mean (hTA1 C13S; hTA1 C13S, mean of 3 replicates, one line per independent experiment): 5.973 and 6.015 | C13S - Normalized Luminescence Counts (N=2) (hTA1 C13S; M = -5): 54.3554 and 36.9604 and 53.1374 and 65.6185 and 52.4268 and 54.7653 | C13S - Normalized Luminescence Counts (N=2) (hTA1 C13S; M = -5.522): 42.3654 and 30.6418 and 38.8635 and 53.123 and 40.9666 and 58.8174 | C13S - Normalized Luminescence Counts (N=2) (hTA1 C13S; M = -6): 26.7212 and 21.3162 and 26.3787 and 35.2187 and 26.4539 and 31.7735 | C13S - Normalized Luminescence Counts (N=2) (hTA1 C13S; M = -6.522): 13.0564 and 10.1636 and 13.437 and 17.4036 and 12.4411 and 15.1722 | pEC50 values, Mean (hTA1 C178S; [1]): 5.899 and 6.116 | ΔpEC50 values (each mutant value - WT average), Mean (hTA1 C178S; [1]): -0.2302 and -0.01318 | Span ± SEM (Emax normalized to β-PEA) (hTA1 C178S; C178S, n=2): 86.82 ± 7.63 | pEC50 ± SEM (hTA1 C178S; C178S, n=2): 6.01 ± 0.05 | EC50 (hTA1 C178S; C178S, n=2, read-out: EC50): 983 nM | Emax values, Mean (hTA1 C178S; C178S, β-PEA = 100, each row one experiment (N=2), 3 replicates): 79.1908 and 94.4471 | C178S - Normalized Luminescence Counts (N=2) (hTA1 C178S; M = -5): 73.1003 and 72.1657 and 63.8478 and 81.3738 and 108.419 and 79.3694 | C178S - Normalized Luminescence Counts (N=2) (hTA1 C178S; M = -5.522): 52.0253 and 55.0627 and 58.1468 and 73.8647 and 83.1688 and 53.1323 | C178S - Normalized Luminescence Counts (N=2) (hTA1 C178S; M = -6): 32.3989 and 32.726 and 30.2026 and 62.7356 and 57.5001 and 49.3328 | C178S - Normalized Luminescence Counts (N=2) (hTA1 C178S; M = -6.522): 18.0529 and 16.5576 and 18.9875 and 30.7245 and 26.2071 and 22.4375 | C178S - Normalized Luminescence Counts (N=2) (hTA1 C178S; M = -7): 4.642 and 4.221 and 4.735 and 9.753 and 8.496 and 8.018 | C178S - Normalized Luminescence Counts (N=2) (hTA1 C178S; M = -7.522): 0.763 and 0.4359 and 0.01533 and 0.9572 and 2.124 and 0.4486 | C178S - Normalized Luminescence Counts (N=2) (hTA1 C178S; M = -8): -0.8725 and -0.6389 and -0.8258 and 3.769 and 2.842 and 2.124 | C178S - Normalized Luminescence Counts (N=2) (hTA1 C178S; M = -8.522): -0.6389 and -1.6202 and -1.667 and 1.376 and 0.02978 and -2.184 | C178S - Normalized Luminescence Counts (N=2) (hTA1 C178S; M = -9): -0.5921 and -1.854 and -1.48 and 0.05969 and 0.9871 and -1.316 | C178S - Normalized Luminescence Counts (N=2) (hTA1 C178S; M = -9.522): -1.293 and -1.48 and -0.6389 and -0.03006 and -0.3591 and -0.4489 | C178S - Normalized Luminescence Counts (N=2) (hTA1 C178S; M = -10): -0.2183 and -0.5454 and -0.966 and -0.5087 and 0.4187 and -1.556 | C178S - Normalized Luminescence Counts (N=2) (hTA1 C178S; M = -10.522): -0.7791 and -0.8258 and -0.8725 and -0.2993 and -0.5386 and -2.962 | C178S - Normalized Luminescence Counts (N=2) (hTA1 C178S; M = -11): -1.433 and -0.8258 and -0.4987 and 1.047 and 0.4785 and -0.2993 | C178S - Normalized Luminescence Counts (N=2) (hTA1 C178S; M = -11.522): -1.293 and -0.6389 and -1.059 and 2.124 and 1.1367 and -0.9276 | C178S - Normalized Luminescence Counts (N=2) (hTA1 C178S; M = -12): -0.1249 and -0.6856 and 0.06206 and -0.2096 and -0.5386 and -1.227 | C178S - Normalized Luminescence Counts (N=2) (hTA1 C178S; M = -12.522): -0.7323 and -0.7791 and -0.8725 and 0.2691 and -0.419 and 0.299 | ΔEmax values (each mutant value - WT average) (hTA1 W264F; W246F mutant (so in the source) minus WT average): -30.8369 | Emax values, Mean (hTA1 W264F; W246F mutant (so in the source), β-PEA = 100, each line an independent experiment, 3 replicates): 17.7915 | Span ± SEM (Emax normalized to β-PEA) (hTA1 W264F; W264F, n=2): 28.7 ± 10.91 | pEC50 ± SEM (hTA1 W264F; W264F, n=2): 4.95 ± 0.97 | EC50 (hTA1 W264F; W264F, n=2, read-out: EC50): 11300 nM | increase in potency vs wild type (hTA1 I290N; I290N): about 5 fold | Span ± SEM (Emax normalized to β-PEA) (hTA1 I290N; I290N, n=2): 76.97 ± 5.53 | pEC50 ± SEM (hTA1 I290N; I290N, n=2): 6.86 ± 0.07 | EC50 (hTA1 I290N; I290N, n=2, read-out: EC50): 139 nM | cAMP accumulation response, single replicate values (source data, Supplementary Figure 5) (hTA1 I290N; hTA1 I290N (N=2), log[Compound], M = -5): 86.8237 and 86.3523 and 77.8671 and 98.8421 | ΔpEC50 values (each mutant value - WT average), Mean (hTA1 I290N; hTA1 I290N mutant minus WT average): 0.6614 and 0.7922 | pEC50 values, Mean (hTA1 I290N; hTA1 I290N mutant, Figure 3B source data, each grid row a separate experiment, 3 replicates): 6.791 and 6.921 | Emax values, Mean (hTA1 I290N; hTA1 I290N mutant, β-PEA set to 100, each grid row a separate experiment, 3 replicates): 82.4992 and 71.4451 | ΔpEC50 values (each mutant value - WT average), Mean (hTA1 T271N; T271N mutant minus WT average, Figure 5B): 0.1858 and 0.05902 | pEC50 values, Mean (hTA1 T271N; T271N mutant, Figure 5B, each row one independent experiment (3 replicates)): 6.315 and 6.188 | Emax values, Mean (hTA1 T271N; T271N mutant, Figure 5B, β-PEA = 100, each row one independent experiment (3 replicates)): 147.043 and 92.5588 | pEC50 ± SEM (hTA1 T271N; T271N, n=2): 6.25 ± 0.03 | EC50 (hTA1 T271N; T271N, n=2, read-out: EC50): 560 nM | Emax (hTA1 T271N; T271N, relative to β-PEA): 119.8%
